Experimental data as given in patent US8937088B2, “Ureas for the treatment and prevention of cancer” (Astar Biotech LLC, priority 2011, dated 2015).
Where two headings read alike, the source gives them in different places.

Experiments:
[1] = tested on: Hep3B (human hepatoma cell line); assay: Cell death detection, trypan blue exclusion assay, Hep3B; format: cell-based; details: 5-day treatment
Description: (§1) Biological Test 2. Cell Death Detection Using Trypan Blue Exclusion Assay.
(§2) After drug treatment, cells were harvested by trypsinization with trypsin/EDTA for 10 min at 37° C. As some apoptotic cells detached from the culture substratum into the medium, these cells were also collected by centrifugation of the medium at 1,200 rpm for 5 min. The pooled cell pellets were resuspended and mixed with trypan blue dye. After Trypan blue stain was done, cells were counted by using a light microscope and a hemocytometer. Blue dye-incorporating cells were scored as being dead. Five hundred cells from randomly chosen fields were counted, and the number of dead cells was counted and expressed as a percentage of the total number of cells counted as shown in Tables 2 to 8 below.

FLT3 = target: T1, FLT3 (Homo sapiens, UniProt P36888); assay: In vitro kinase assay (Invitrogen SelectScreen Profiling Service), FLT3; format: biochemical; details: FLT3, 0.1 μM
T1 sequence (P36888 27-993): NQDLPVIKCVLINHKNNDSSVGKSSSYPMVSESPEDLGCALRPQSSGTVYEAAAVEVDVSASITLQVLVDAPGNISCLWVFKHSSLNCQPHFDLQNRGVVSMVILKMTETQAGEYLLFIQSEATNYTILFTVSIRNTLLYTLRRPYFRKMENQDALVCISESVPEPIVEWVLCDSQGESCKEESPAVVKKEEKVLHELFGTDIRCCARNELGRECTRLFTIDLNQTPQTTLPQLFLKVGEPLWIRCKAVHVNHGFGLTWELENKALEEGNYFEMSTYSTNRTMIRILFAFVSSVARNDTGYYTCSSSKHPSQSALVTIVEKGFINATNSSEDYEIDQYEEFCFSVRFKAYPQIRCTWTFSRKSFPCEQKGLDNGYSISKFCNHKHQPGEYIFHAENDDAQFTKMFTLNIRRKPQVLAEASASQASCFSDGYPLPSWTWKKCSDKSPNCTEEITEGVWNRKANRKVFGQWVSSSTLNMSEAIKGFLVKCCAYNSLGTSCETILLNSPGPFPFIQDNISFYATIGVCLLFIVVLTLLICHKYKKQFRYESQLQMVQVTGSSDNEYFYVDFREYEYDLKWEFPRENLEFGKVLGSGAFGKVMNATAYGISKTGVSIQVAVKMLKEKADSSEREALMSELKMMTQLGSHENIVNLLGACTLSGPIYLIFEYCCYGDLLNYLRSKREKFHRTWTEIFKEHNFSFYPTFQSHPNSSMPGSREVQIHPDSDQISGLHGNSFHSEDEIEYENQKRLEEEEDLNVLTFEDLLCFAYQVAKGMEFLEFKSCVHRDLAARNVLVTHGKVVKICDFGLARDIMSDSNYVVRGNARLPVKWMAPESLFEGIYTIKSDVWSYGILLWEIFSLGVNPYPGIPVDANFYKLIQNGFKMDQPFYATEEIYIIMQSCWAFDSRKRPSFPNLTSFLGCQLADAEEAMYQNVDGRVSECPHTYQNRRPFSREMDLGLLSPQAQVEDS
Description: (§3) Biological Test 1. In Vitro Kinase Assay for BRAF, FLT3 and KDR(VEGFR2) The inhibitory activities of the compounds of the invention were measured by Invitrogen's SelectScreen® Profiling Service.

[2] = tested on: HUH7 (human hepatoma cell line); assay: Cell death detection, trypan blue exclusion assay, HUH7; format: cell-based; details: Huh-7, 168 h, HUH7, 7-day treatment, read-out: Cell Death (%) at Tested Concentration
Description: as §1, §2

[3] = tested on: HT29 (human colon adenocarcinoma cell line); assay: Cell death detection, trypan blue exclusion assay, HT29; format: cell-based; details: HT29, 5-day treatment
Description: as §1, §2

[4] = tested on: HUH7 (human hepatoma cell line); assay: Cell death detection, trypan blue exclusion assay, HUH7, in combination with AZD-6244; format: cell-based; details: HUH7, 6-day treatment, compound 0.5 μM
Description: as §1, §2

BRAF = BRAF (Homo sapiens, UniProt P15056); assay: In vitro kinase assay (Invitrogen SelectScreen Profiling Service), BRAF; format: biochemical
Description: as §3

[5] = tested on: HepG2 (human Hepatocellular carcinoma cell line); assay: Cell death detection, trypan blue exclusion assay, HepG2; format: cell-based; details: HepG2, 5-day treatment
Description: as §1, §2

[6] = tested on: LNCaP (human prostate adenocarcinoma cell line); assay: Cell death detection, trypan blue exclusion assay, LNCaP; format: cell-based; details: read-out: Cell Death (%) at Tested Concentration
Description: as §1, §2

KDR(VEGFR2) = KDR(VEGFR2) (Homo sapiens, UniProt P35968); assay: In vitro kinase assay (Invitrogen SelectScreen Profiling Service), KDR; format: biochemical
Description: as §3

[7] = tested on: patient-derived primary squamous lung 14531 tumor; assay: In vivo activity in SCID mouse model with lung cancer, 30-day treatment; details: patient-derived primary squamous lung 14531 tumor in mouse, compared to the control
Source text: Biological Test 4. In Vivo Activity in […] SCID Mouse Model with Lung Cancer
Biological Test 5. In Vivo Activity in Senograph SCID Mouse Model with Lung Cancer

KDR(VEGFR2), sequence (P35968 20-1356): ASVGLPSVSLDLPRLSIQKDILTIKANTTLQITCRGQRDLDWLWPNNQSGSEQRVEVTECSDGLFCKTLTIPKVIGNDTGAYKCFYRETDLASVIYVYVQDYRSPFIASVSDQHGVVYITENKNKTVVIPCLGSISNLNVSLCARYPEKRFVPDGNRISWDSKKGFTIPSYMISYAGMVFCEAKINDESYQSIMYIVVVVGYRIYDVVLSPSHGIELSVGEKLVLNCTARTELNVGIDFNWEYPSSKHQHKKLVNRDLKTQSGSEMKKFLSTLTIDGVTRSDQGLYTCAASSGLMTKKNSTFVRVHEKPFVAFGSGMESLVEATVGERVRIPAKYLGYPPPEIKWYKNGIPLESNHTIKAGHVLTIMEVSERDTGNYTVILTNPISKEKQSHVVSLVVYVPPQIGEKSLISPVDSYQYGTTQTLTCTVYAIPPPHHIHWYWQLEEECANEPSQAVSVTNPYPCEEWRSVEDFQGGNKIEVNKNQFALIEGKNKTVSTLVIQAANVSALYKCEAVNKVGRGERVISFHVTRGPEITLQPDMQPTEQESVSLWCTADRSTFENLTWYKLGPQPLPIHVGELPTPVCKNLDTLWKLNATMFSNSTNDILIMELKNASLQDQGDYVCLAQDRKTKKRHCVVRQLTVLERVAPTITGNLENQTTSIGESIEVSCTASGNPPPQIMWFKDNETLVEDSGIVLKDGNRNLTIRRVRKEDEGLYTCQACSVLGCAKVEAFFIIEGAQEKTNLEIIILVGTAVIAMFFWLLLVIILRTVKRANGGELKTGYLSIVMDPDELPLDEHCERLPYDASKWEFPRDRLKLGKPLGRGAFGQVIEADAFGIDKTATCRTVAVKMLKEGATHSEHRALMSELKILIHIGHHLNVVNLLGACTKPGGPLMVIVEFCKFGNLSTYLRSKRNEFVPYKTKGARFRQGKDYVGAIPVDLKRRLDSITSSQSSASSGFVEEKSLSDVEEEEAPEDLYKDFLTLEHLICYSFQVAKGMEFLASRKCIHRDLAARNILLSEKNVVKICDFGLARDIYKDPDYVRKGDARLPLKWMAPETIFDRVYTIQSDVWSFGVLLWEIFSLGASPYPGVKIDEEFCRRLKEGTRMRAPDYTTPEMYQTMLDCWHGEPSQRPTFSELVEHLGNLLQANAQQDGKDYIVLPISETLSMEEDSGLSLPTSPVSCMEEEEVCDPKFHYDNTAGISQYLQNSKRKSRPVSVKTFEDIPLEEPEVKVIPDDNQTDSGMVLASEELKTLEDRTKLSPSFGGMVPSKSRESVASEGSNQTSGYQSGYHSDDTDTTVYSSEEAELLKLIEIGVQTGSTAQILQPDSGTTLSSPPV
BRAF, sequence (P15056 whole entry): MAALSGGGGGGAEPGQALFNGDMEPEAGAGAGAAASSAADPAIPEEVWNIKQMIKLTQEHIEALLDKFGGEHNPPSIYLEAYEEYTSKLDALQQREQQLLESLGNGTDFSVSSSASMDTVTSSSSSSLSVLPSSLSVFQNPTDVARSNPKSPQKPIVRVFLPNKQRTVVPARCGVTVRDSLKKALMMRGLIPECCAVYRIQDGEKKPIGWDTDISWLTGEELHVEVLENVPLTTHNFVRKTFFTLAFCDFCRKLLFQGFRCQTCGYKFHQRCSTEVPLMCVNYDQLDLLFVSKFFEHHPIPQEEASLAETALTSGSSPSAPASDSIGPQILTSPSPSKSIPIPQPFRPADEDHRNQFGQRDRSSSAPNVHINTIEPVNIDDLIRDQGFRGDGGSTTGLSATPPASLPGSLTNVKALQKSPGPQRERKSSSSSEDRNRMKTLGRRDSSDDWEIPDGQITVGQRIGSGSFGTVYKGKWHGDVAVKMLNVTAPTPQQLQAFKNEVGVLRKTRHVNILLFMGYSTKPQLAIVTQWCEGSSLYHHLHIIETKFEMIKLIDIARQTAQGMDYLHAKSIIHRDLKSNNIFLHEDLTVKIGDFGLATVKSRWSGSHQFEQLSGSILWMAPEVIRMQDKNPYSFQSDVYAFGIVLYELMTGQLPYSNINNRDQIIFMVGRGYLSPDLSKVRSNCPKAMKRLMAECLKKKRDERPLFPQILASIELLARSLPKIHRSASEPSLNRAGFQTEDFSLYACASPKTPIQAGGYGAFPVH

With `CNC(=O)c1cc(Oc2ccc(NC(=O)Nc3ccc(Cl)c(S(F)(F)(F)(F)F)c3)cc2)ccn1` [Example 3, 4-[4-({[4-chloro-3-(pentafluoro-λ^6-sulfanyl)phenyl]carbamoyl}amino)phenoxy]-N-methylpyridine-2-carboxamide] as the compound, how does the “Cell Death (%) at Tested Concentration” value ([1]; 0.25 uM) read?
The value was 3.3%.

And the “Cell Death (%) at Tested Concentration” value ([1]; 3.0 uM)?
Its value is 25.6%.

And the “Cell Death (%) at Tested Concentration” value ([1]; 5.0 uM)?
The value was 90.7%.

And the inhibition at 0.1 µM (FLT3)?
Its inhibition at 0.1 µM is 72%.

And the cytotoxicity at 1 µM [2]?
The cytotoxicity at 1 µM was 2.7%.

And the cytotoxicity at 2.5 µM [2]?
Its cytotoxicity at 2.5 µM is 4.5%.

What about the cytotoxicity at 5 µM [2] of the same compound?
The cytotoxicity at 5 µM was 53.8%.

What about the cytotoxicity at 7.5 µM [2] of the same compound?
Its cytotoxicity at 7.5 µM is 79.6%.

What about the cytotoxicity at 10 µM [2] of the same compound?
Its cytotoxicity at 10 µM is 87.6%.

And the “Cell Death (%) at Tested Concentration” value ([3]; 2.5 uM)?
The value was 11.4%.

What about the “Cell Death (%) at Tested Concentration” value ([3]; 5.0 uM) of the same compound?
Its value is 16.7%.

And the “Cell Death (%) at Tested Concentration” value ([3]; 10 uM)?
The value was 30.7%.

What about the “Cell Death (%) in combination with AZD-6244” value (shortened to “Cell Death (%) in combination”) ([4]; AZD-6244 0 μM) of the same compound?
Its value is 1.9%.

What about the “Cell Death (%) in combination” value ([4]; AZD-6244 0.5 μM) of the same compound?
The value was 94.6%.

What about the inhibition at 0.1 µM (BRAF) of the same compound?
The inhibition at 0.1 µM was 11%.

What about the “Cell Death (%) at Tested Concentration” value ([5]; 0.25 uM) of the same compound?
The value was 2.7%.

And the “Cell Death (%) at Tested Concentration” value ([5]; 3.0 uM)?
The value was 4.2%.

And the “Cell Death (%) at Tested Concentration” value ([5]; 5.0 uM)?
The value was 14.6%.

What about the cytotoxicity at 1 µM ([6]; 72 h, 3-day treatment) of the same compound?
Its cytotoxicity at 1 µM is 1.3%.

What about the cytotoxicity at 2.5 µM ([6]; 72 h, 3-day treatment) of the same compound?
Its cytotoxicity at 2.5 µM is 1.9%.

And the cytotoxicity at 5 µM ([6]; 72 h, 3-day treatment)?
Its cytotoxicity at 5 µM is 4.3%.

What about the cytotoxicity at 7.5 µM ([6]; 72 h, 3-day treatment) of the same compound?
The cytotoxicity at 7.5 µM was 13.4%.

What about the cytotoxicity at 10 µM ([6]; 72 h, 3-day treatment) of the same compound?
The cytotoxicity at 10 µM was 91.8%.

What about the cytotoxicity at 1 µM ([6]; 168 h, 7-day treatment) of the same compound?
Its cytotoxicity at 1 µM is 2.3%.

And the cytotoxicity at 2.5 µM ([6]; 168 h, 7-day treatment)?
The cytotoxicity at 2.5 µM was 2.8%.

What about the cytotoxicity at 5 µM ([6]; 168 h, 7-day treatment) of the same compound?
Its cytotoxicity at 5 µM is 99%.

And the cytotoxicity at 7.5 µM ([6]; 168 h, 7-day treatment)?
The cytotoxicity at 7.5 µM was 99%.

And the cytotoxicity at 10 µM ([6]; 168 h, 7-day treatment)?
The cytotoxicity at 10 µM was 99%.

What about the inhibition at 0.1 µM (KDR(VEGFR2)) of the same compound?
Its inhibition at 0.1 µM is 64%.

For `CNC(=O)c1cc(Oc2ccc(NC(=O)Nc3ccc(S(F)(F)(F)(F)F)cc3)c(F)c2)ccn1` [Example 10, 4-[3-fluoro-4-({[4-(pentafluoro-λ^6-sulfanyl)phenyl]carbamoyl}amino)phenoxy]-N-methylpyridine-2-carboxamide], which “effect in reducing the tumor volume” value [7] is on record?
Its value is “significant effect in reducing the tumor volume”.

And the “Cell Death (%) at Tested Concentration” value ([1]; 0.25 uM)?
Its value is 3.4%.

What about the “Cell Death (%) at Tested Concentration” value ([1]; 3.0 uM) of the same compound?
Its value is 7.6%.

What about the “Cell Death (%) at Tested Concentration” value ([1]; 5.0 uM) of the same compound?
Its value is 19.5%.

And the cytotoxicity at 1 µM [2]?
The cytotoxicity at 1 µM was 1.9%.

What about the cytotoxicity at 2.5 µM [2] of the same compound?
The cytotoxicity at 2.5 µM was 2.2%.

And the cytotoxicity at 5 µM [2]?
Its cytotoxicity at 5 µM is 17.2%.

And the cytotoxicity at 7.5 µM [2]?
Its cytotoxicity at 7.5 µM is 87.6%.

And the cytotoxicity at 10 µM [2]?
The cytotoxicity at 10 µM was 93.7%.

What about the “Cell Death (%) at Tested Concentration” value ([3]; 2.5 uM) of the same compound?
The value was 18.3%.

And the “Cell Death (%) at Tested Concentration” value ([3]; 5.0 uM)?
The value was 54.6%.

And the “Cell Death (%) at Tested Concentration” value ([3]; 10 uM)?
Its value is 56.7%.

What about the “Cell Death (%) in combination” value ([4]; AZD-6244 0 μM) of the same compound?
Its value is 1.7%.

What about the “Cell Death (%) in combination” value ([4]; AZD-6244 0.5 μM) of the same compound?
Its value is 94.6%.

And the “Cell Death (%) at Tested Concentration” value ([5]; 0.25 uM)?
Its value is 2.7%.

What about the “Cell Death (%) at Tested Concentration” value ([5]; 3.0 uM) of the same compound?
Its value is 4.2%.

And the “Cell Death (%) at Tested Concentration” value ([5]; 5.0 uM)?
The value was 4.8%.

And the cytotoxicity at 1 µM ([6]; 72 h, 3-day treatment)?
Its cytotoxicity at 1 µM is 1.8%.

What about the cytotoxicity at 2.5 µM ([6]; 72 h, 3-day treatment) of the same compound?
Its cytotoxicity at 2.5 µM is 1.9%.

What about the cytotoxicity at 5 µM ([6]; 72 h, 3-day treatment) of the same compound?
The cytotoxicity at 5 µM was 9.4%.

What about the cytotoxicity at 7.5 µM ([6]; 72 h, 3-day treatment) of the same compound?
Its cytotoxicity at 7.5 µM is 11.3%.

What about the cytotoxicity at 10 µM ([6]; 72 h, 3-day treatment) of the same compound?
The cytotoxicity at 10 µM was 68.3%.

What about the cytotoxicity at 1 µM ([6]; 168 h, 7-day treatment) of the same compound?
Its cytotoxicity at 1 µM is 2.2%.

And the cytotoxicity at 2.5 µM ([6]; 168 h, 7-day treatment)?
The cytotoxicity at 2.5 µM was 2.8%.

And the cytotoxicity at 5 µM ([6]; 168 h, 7-day treatment)?
The cytotoxicity at 5 µM was 99%.

And the cytotoxicity at 7.5 µM ([6]; 168 h, 7-day treatment)?
The cytotoxicity at 7.5 µM was 99%.

What about the cytotoxicity at 10 µM ([6]; 168 h, 7-day treatment) of the same compound?
Its cytotoxicity at 10 µM is 99%.

What does the source list for `CNC(=O)c1cc(Oc2ccc(NC(=O)Nc3ccc(Cl)c(C(F)(F)F)c3)cc2)ccn1` [Sorafenib, reference compound]?
effect in reducing the tumor volume [7]: significant effect in reducing the tumor volume; Cell Death (%) at Tested Concentration ([1]; 0.25 uM): 3.0%; Cell Death (%) at Tested Concentration ([1]; 3.0 uM): 12.5%; Cell Death (%) at Tested Concentration ([1]; 5.0 uM): 88.2%; Cell Death (%) at Tested Concentration ([3]; 2.5 uM): 11.6%; Cell Death (%) at Tested Concentration ([3]; 5.0 uM): 14.3%; Cell Death (%) at Tested Concentration ([3]; 10 uM): 27.6%; Cell Death (%) in combination with AZD-6244 ([4]; AZD-6244 0 μM): 1.9%; Cell Death (%) in combination with AZD-6244 ([4]; AZD-6244 0.5 μM): 97.3%; Cell Death (%) at Tested Concentration ([5]; 0.25 uM): 2.2%; Cell Death (%) at Tested Concentration ([5]; 3.0 uM): 6.4%; Cell Death (%) at Tested Concentration ([5]; 5.0 uM): 8.2%; cytotoxicity at 1 µM ([6]; 72 h, 3-day treatment): 1.6%; cytotoxicity at 2.5 µM ([6]; 72 h, 3-day treatment): 1.7%; cytotoxicity at 5 µM ([6]; 72 h, 3-day treatment): 2.3%; cytotoxicity at 7.5 µM ([6]; 72 h, 3-day treatment): 2.4%; cytotoxicity at 10 µM ([6]; 72 h, 3-day treatment): 81.3%; cytotoxicity at 1 µM ([6]; 168 h, 7-day treatment): 1.6%; cytotoxicity at 2.5 µM ([6]; 168 h, 7-day treatment): 1.6%; cytotoxicity at 5 µM ([6]; 168 h, 7-day treatment): 2.8%; cytotoxicity at 7.5 µM ([6]; 168 h, 7-day treatment): 14.7%; cytotoxicity at 10 µM ([6]; 168 h, 7-day treatment): 99%
